Test results published in patent US20230146455A1, “TREATMENT OF INFLAMMATORY DISEASES WITH PEPTIDES AND PHARMACEUTICAL COMPOSITIONS” (Yuyu Pharma, Inc., priority 2020, published 2023).
“And” between values parts separate entries of the source, which are not always exact repeats. Equal values may be shown once. Where a SMILES comes first, the peptide text is derived from it. [ ]: non-standard residue; d: D form. Hyp = O=C(O)[C@@H]1C[C@@H](O)CN1

Test system: CCL5/RANTES
Experiment: Example 9 Luminex, LPS hPBMCs: CCL5/RANTES
Assay type: cell-based, human
Description: Treatment Human PBMCs were pretreated with YY-101, YDE-011 and YDE-043 or reference compound; Xiidra® at various concentration (ranging from 1 nM to 100 uM) for 2 h before stimulation. An equal volume of 0.5% DMSO was used as a vehicle control. Then, the cells were treated with LPS at 5 ug/ml. The supernatants from treated cells were harvested at 24 h and placed in a 96 well for Luminex cytokine & chemokine profiling using a Luminex 200 multiplex assay (Luminex; R&D system, USA).
The main study arm with triplicate wells per group in a 24-well plate: • 1. Blank • 2. PBMC: 0.5% DMSO • 3. PBMC+LPS (5 ug/ml) • 4. PBMC+YY-101 100 uM • 5. PBMC+YY-101 10 uM • 6. PBMC+YY-101 1 uM • 7. PBMC+YY-101 0.1 uM • 8. PBMC+YY-101 0.01 uM • 9. PBMC+LPS (5 ug/ml)+Xiidra®100 uM • 10. PBMC+LPS (5 ug/ml)+Xiidra® 10 uM • 11. PBMC+LPS (5 ug/ml)+Xiidra® 1 uM • 12. PBMC+LPS (5 ug/ml)+Xiidra®0.1 uM • 13. PBMC+LPS (5 ug/ml)+Xiidra®0.01 uM • 14. PBMC+LPS (5 ug/ml)+Xiidra®0.001 uM • 15. PBMC+LPS (5 ug/ml)+YY-101 100 uM • 16. PBMC+LPS (5 ug/ml)+YY-101 10 uM • 17. PBMC+LPS (5 ug/ml)+YY-101 1 uM • 18. PBMC+LPS (5 ug/ml)+YY-101 0.1 uM • 19. PBMC+LPS (5 ug/ml)+YY-101 0.01 uM • 20. PBMC+LPS (5 ug/ml)+YY-101 0.001 uM • 21. PBMC+LPS (5 ug/ml)+YDE-011 100 uM • 22. PBMC+LPS (5 ug/ml)+YDE-011 10 uM • 23. PBMC+LPS (5 ug/ml)+YDE-011 1 uM • 24. PBMC+LPS (5 ug/ml)+YDE-011 0.1 uM • 25. PBMC+LPS (5 ug/ml)+YDE-011 0.01 uM • 26. PBMC+LPS (5 ug/ml)+YDE-011 0.001 uM • 27. PBMC+LPS (5 ug/ml)+YDE-043 100 uM • 28. PBMC+LPS (5 ug/ml)+YDE-043 10 uM • 29. PBMC+LPS (5 ug/ml)+YDE-043 1 uM • 30. PBMC+LPS (5 ug/ml)+YDE-043 0.1 uM • 31. PBMC+LPS (5 ug/ml)+YDE-043 0.01 uM • 32. PBMC+LPS (5 ug/ml)+YDE-043 0.001 uM
Multiplex assay was used to measure 30 cytokines and chemokines. The 1:2, 1:10 and 1:200 diluted cell supernatant and serial dilution of the standard were dispensed into a 96 well plate at 50 ul/well. Then, the pre-mixed cocktail of antibody-coated magnetic beads was dispensed at 50 ul/well and incubated at room temperature for 2 h in a horizontal orbital microplate shaker at 800±500 rpm. The beads were washed using a magnetic device to prevent loss. The biotin-antibody was dispensed in 50 ul of each well and incubated at room temperature for 1 h in a shaker at 800±500 rpm. After washing, streptavidin-PE was added at 50 ul/well and incubated at room temperature for 30 min in a shaker under the same conditions. Finally, after washing, wash buffer (100 ul/well) was added to the plate and incubated in a shaker for 2 min. The Luminex™ 200 setting were set according to the manufacturer's protocol. The data was calculated with a standard five-parameter logistic nonlinear regression analysis of the data (xPonent software 4.2, USA). The levels of cytokine/chemokine are normalized to the live cell counts (1×10^5 cells/mL) and presented as concentrations per mL (pg/mL or ng/mL).

[1] = PBMC + LPS(5 ug/ml), test article 0.001 uM, Mean
[2] = PBMC + LPS(5 ug/ml), test article 0.001 uM, single replicates (1st, 2nd, 3rd)
[3] = PBMC + LPS(5 ug/ml), test article 0.01 uM, Mean
[4] = PBMC + LPS(5 ug/ml), test article 0.01 uM, single replicates (1st, 2nd, 3rd)
[5] = PBMC + LPS(5 ug/ml), test article 0.1 uM, Mean
[6] = PBMC + LPS(5 ug/ml), test article 0.1 uM, single replicates (1st, 2nd, 3rd)
[7] = PBMC + LPS(5 ug/ml), test article 1 uM, Mean
[8] = PBMC + LPS(5 ug/ml), test article 1 uM, single replicates (1st, 2nd, 3rd)
[9] = PBMC + LPS(5 ug/ml), test article 10 uM, Mean
[10] = PBMC + LPS(5 ug/ml), test article 10 uM, single replicates (1st, 2nd, 3rd)
[11] = PBMC + LPS(5 ug/ml), test article 100 uM, Mean
[12] = PBMC + LPS(5 ug/ml), test article 100 uM, single replicates (1st, 2nd, 3rd)
[13] = PBMC without LPS, test article 0.01 uM, Mean
[14] = PBMC without LPS, test article 0.01 uM, single replicates (1st, 2nd)
[15] = PBMC without LPS, test article 0.1 uM, Mean
[16] = PBMC without LPS, test article 0.1 uM, single replicates (1st, 2nd)
[17] = PBMC without LPS, test article 1 uM, Mean
[18] = PBMC without LPS, test article 1 uM, single replicates (1st, 2nd)
[19] = PBMC without LPS, test article 10 uM, Mean
[20] = PBMC without LPS, test article 10 uM, single replicates (1st, 2nd)
[21] = PBMC without LPS, test article 100 uM, Mean
[22] = PBMC without LPS, test article 100 uM, single replicates (1st, 2nd)

With CC(C)C[C@H](NC(=O)CNC(=O)[C@H](CC(=O)O)NC(=O)[C@H](CCC(N)=O)NC(=O)CNC(=O)[C@@H]1C[C@@H](O)CN1)C(=O)N[C@@H](C)C(=O)NCC(=O)N1CCC[C@H]1C(=O)N[C@@H](CCCCN)C(=O)O [YY-101] (H-[Hyp]GQDGLAGPK-OH; N-terminus and C-terminus assumed) the “Concentration (CCL5/RANTES)” value [1] was 402.3 pg/mL, the “MFI (Bead name: CCL5/RANTES)” value [1] was 1103.2 and the “conc/live cell (CCL5/RANTES)” value [1] was 62.7 pg/10^5. For the same molecule, the “Concentration (CCL5/RANTES)” value [2] was 407.4 pg/mL and 412.9 pg/mL and 386.6 pg/mL, the “MFI (Bead name: CCL5/RANTES)” value [2] was 1120.5 and 1139.5 and 1049.5 and the “conc/live cell (CCL5/RANTES)” value [2] was 71.5 pg/10^5 and 58.2 pg/10^5 and 58.6 pg/10^5. The “Concentration (CCL5/RANTES)” value [3] was 454.1 pg/mL, the “MFI (Bead name: CCL5/RANTES)” value [3] was 1281.8 and the “conc/live cell (CCL5/RANTES)” value [3] was 73.6 pg/10^5. For the same molecule, the “Concentration (CCL5/RANTES)” value [4] was 476.2 pg/mL and 443.9 pg/mL and 442.2 pg/mL, the “MFI (Bead name: CCL5/RANTES)” value [4] was 1358.5 and 1246.5 and 1240.5 and the “conc/live cell (CCL5/RANTES)” value [4] was 74.4 pg/10^5 and 74.0 pg/10^5 and 72.5 pg/10^5. For the same molecule, the “Concentration (CCL5/RANTES)” value [5] was 428.0 pg/mL, the “MFI (Bead name: CCL5/RANTES)” value [5] was 1191.5 and the “conc/live cell (CCL5/RANTES)” value [5] was 73.5 pg/10^5. The “Concentration (CCL5/RANTES)” value [6] was 432.4 pg/mL and 427.1 pg/mL and 424.5 pg/mL, the “MFI (Bead name: CCL5/RANTES)” value [6] was 1206.5 and 1188.5 and 1179.5 and the “conc/live cell (CCL5/RANTES)” value [6] was 69.7 pg/10^5 and 82.1 pg/10^5 and 68.5 pg/10^5. The “Concentration (CCL5/RANTES)” value [7] was 430.6 pg/mL, the “MFI (Bead name: CCL5/RANTES)” value [7] was 1200.7 and the “conc/live cell (CCL5/RANTES)” value [7] was 66.2 pg/10^5. The “Concentration (CCL5/RANTES)” value [8] was 456.2 pg/mL and 419.3 pg/mL and 416.4 pg/mL, the “MFI (Bead name: CCL5/RANTES)” value [8] was 1289.0 and 1161.5 and 1151.5 and the “conc/live cell (CCL5/RANTES)” value [8] was 72.4 pg/10^5 and 59.1 pg/10^5 and 67.2 pg/10^5. The “Concentration (CCL5/RANTES)” value [9] was 430.1 pg/mL, the “MFI (Bead name: CCL5/RANTES)” value [9] was 1198.8 and the “conc/live cell (CCL5/RANTES)” value [9] was 65.2 pg/10^5. The “Concentration (CCL5/RANTES)” value [10] was 422.8 pg/mL and 449.1 pg/mL and 418.4 pg/mL, the “MFI (Bead name: CCL5/RANTES)” value [10] was 1173.5 and 1264.5 and 1158.5 and the “conc/live cell (CCL5/RANTES)” value [10] was 70.5 pg/10^5 and 70.2 pg/10^5 and 55.1 pg/10^5. The “Concentration (CCL5/RANTES)” value [11] was 336.7 pg/mL, the “MFI (Bead name: CCL5/RANTES)” value [11] was 881.7 and the “conc/live cell (CCL5/RANTES)” value [11] was 58.5 pg/10^5. The “Concentration (CCL5/RANTES)” value [12] was 334.7 pg/mL and 330.4 pg/mL and 345.1 pg/mL, the “MFI (Bead name: CCL5/RANTES)” value [12] was 875.0 and 860.5 and 909.5 and the “conc/live cell (CCL5/RANTES)” value [12] was 53.1 pg/10^5 and 53.3 pg/10^5 and 69.0 pg/10^5. The “Concentration (CCL5/RANTES)” value [13] was 36.8 pg/mL, the “MFI (Bead name: CCL5/RANTES)” value [13] was 52.0 and the “conc/live cell (CCL5/RANTES)” value [13] was 7.4 pg/10^5. The “Concentration (CCL5/RANTES)” value [14] was 27.5 pg/mL and 46.1 pg/mL, the “MFI (Bead name: CCL5/RANTES)” value [14] was 37.5 and 66.5 and the “conc/live cell (CCL5/RANTES)” value [14] was 5.3 pg/10^5 and 9.6 pg/10^5. The “Concentration (CCL5/RANTES)” value [15] was 36.2 pg/mL, the “MFI (Bead name: CCL5/RANTES)” value [15] was 50.5 and the “conc/live cell (CCL5/RANTES)” value [15] was 7.1 pg/10^5. The “Concentration (CCL5/RANTES)” value [16] was 31.7 pg/mL and 40.7 pg/mL, the “MFI (Bead name: CCL5/RANTES)” value [16] was 43.5 and 57.5 and the “conc/live cell (CCL5/RANTES)” value [16] was 7.2 pg/10^5 and 7.0 pg/10^5. The “Concentration (CCL5/RANTES)” value [17] was 35.3 pg/mL, the “MFI (Bead name: CCL5/RANTES)” value [17] was 49.0 and the “conc/live cell (CCL5/RANTES)” value [17] was 6.4 pg/10^5. The “Concentration (CCL5/RANTES)” value [18] was 33.0 pg/mL and 37.6 pg/mL, the “MFI (Bead name: CCL5/RANTES)” value [18] was 45.5 and 52.5 and the “conc/live cell (CCL5/RANTES)” value [18] was 6.0 pg/10^5 and 6.8 pg/10^5. For the same molecule, the “Concentration (CCL5/RANTES)” value [19] was 79.0 pg/mL, the “MFI (Bead name: CCL5/RANTES)” value [19] was 136.0 and the “conc/live cell (CCL5/RANTES)” value [19] was 12.5 pg/10^5. For the same molecule, the “Concentration (CCL5/RANTES)” value [20] was 109.6 pg/mL and 48.3 pg/mL, the “MFI (Bead name: CCL5/RANTES)” value [20] was 201.5 and 70.5 and the “conc/live cell (CCL5/RANTES)” value [20] was 17.1 pg/10^5 and 7.9 pg/10^5. The “Concentration (CCL5/RANTES)” value [21] was 67.1 pg/mL, the “MFI (Bead name: CCL5/RANTES)” value [21] was 107.0 and the “conc/live cell (CCL5/RANTES)” value [21] was 10.1 pg/10^5. For the same molecule, the “Concentration (CCL5/RANTES)” value [22] was 79.2 pg/mL and 55.0 pg/mL, the “MFI (Bead name: CCL5/RANTES)” value [22] was 131.5 and 82.5 and the “conc/live cell (CCL5/RANTES)” value [22] was 12.4 pg/10^5 and 7.9 pg/10^5.
